# Data from US10670605B2, “Cysteine reactive probes and uses thereof” (The Scripps Research Institute, priority 2015, dated 2020).
# How the values were obtained:
# Test in all cases: Competitive isoTOP-ABPP, cell lysates
# Assay type in all cases: binding
# DDX59 C453 (Q5T1V6) = target: T1, DDX59 C453 (Q5T1V6) (Homo sapiens, UniProt Q5T1V6); conditions: for R value (DMSO/fragment) / isoTOP-ABPP ratio, Q5T1V6_C453: 500 μM; for isoTOP-ABPP reactivity profile ratio, Q5T1V6_C453: 500 μm
# T1 sequence (Q5T1V6 1-619): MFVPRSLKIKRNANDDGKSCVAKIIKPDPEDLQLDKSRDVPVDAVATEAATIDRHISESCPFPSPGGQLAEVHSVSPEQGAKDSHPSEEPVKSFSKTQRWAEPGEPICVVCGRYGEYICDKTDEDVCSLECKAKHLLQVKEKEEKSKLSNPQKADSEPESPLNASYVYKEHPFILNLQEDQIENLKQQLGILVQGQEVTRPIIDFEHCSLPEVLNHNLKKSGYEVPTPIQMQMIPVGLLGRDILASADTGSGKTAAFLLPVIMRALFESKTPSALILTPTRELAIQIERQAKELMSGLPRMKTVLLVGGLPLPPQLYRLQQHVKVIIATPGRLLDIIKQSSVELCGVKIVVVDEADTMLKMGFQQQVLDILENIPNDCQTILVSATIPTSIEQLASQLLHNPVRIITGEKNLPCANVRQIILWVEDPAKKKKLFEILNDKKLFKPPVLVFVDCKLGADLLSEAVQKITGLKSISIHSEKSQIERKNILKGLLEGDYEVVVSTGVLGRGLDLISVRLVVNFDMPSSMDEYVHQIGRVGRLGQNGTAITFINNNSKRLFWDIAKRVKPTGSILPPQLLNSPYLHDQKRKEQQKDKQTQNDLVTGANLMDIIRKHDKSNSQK
# IRAK1 C608 (P51617) = IRAK1 C608 (P51617) (Homo sapiens, UniProt P51617); conditions: for R value (DMSO/fragment) / isoTOP-ABPP ratio, P51617_C608: 500 μM, invitro, ramos; for isoTOP-ABPP ratio (reactivity profile), P51617_C608: 500 μm in-vitro ramos; for isoTOP-ABPP reactivity ratio, P51617_C608 / isoTOP-ABPP reactivity profile ratio, P51617_C608: 500 μm
# IRAK1 C608 (P51617), sequence (P51617 whole entry, the tested form may be a part): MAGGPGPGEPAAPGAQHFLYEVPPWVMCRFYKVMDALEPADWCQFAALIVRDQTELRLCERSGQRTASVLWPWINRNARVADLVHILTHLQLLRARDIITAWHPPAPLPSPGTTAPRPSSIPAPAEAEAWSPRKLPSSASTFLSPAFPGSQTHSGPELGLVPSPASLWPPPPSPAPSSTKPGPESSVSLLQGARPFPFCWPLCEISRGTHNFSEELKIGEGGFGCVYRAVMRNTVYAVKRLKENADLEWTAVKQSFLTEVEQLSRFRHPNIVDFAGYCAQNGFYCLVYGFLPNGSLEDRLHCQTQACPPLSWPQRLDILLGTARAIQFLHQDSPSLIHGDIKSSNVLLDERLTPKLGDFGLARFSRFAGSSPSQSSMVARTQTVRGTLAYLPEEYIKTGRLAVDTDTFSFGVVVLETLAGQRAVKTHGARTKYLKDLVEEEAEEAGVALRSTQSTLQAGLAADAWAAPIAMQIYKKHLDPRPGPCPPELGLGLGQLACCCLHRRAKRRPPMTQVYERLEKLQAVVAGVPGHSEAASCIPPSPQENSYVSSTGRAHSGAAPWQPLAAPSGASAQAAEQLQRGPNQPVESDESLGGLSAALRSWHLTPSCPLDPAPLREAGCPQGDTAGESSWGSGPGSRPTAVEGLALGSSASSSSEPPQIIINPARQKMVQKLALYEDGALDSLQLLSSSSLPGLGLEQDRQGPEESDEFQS
# POU2F2 C346 (P09086) = target: T2, POU2F2 C346 (P09086) (Homo sapiens, UniProt P09086); conditions: for R value (DMSO/fragment) / isoTOP-ABPP ratio, P09086_C346: 500 μM
# T2 sequence (P09086 1-479): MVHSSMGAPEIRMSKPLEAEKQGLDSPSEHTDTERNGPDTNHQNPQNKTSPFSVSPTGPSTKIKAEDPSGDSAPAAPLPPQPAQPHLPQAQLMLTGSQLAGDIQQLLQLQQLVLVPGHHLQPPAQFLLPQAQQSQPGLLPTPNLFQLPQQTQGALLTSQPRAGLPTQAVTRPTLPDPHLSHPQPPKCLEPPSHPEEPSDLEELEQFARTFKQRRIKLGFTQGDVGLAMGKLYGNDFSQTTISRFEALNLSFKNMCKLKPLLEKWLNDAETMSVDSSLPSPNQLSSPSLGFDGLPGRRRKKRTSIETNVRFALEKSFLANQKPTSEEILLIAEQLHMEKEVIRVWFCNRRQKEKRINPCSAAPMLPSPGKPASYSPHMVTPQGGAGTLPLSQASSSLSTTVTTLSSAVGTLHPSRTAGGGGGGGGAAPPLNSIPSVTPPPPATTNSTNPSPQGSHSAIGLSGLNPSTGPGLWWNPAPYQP
# O14933 C98 = O14933 C98 (Homo sapiens, UniProt O14933); conditions: 500 μM, invitro, ramos
# O14933 C98, sequence (O14933 whole entry, one chain of several): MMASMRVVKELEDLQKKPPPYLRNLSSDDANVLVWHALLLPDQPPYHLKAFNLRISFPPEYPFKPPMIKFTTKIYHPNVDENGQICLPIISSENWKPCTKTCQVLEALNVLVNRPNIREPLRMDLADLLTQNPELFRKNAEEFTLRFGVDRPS
# O114933_C98 = O114933_C98 (Homo sapiens, UniProt O14933)
# O114933_C98, sequence (O14933 whole entry): as the sequence (O14933 whole entry, one chain of several) above
# O00541_C272 = O00541_C272 (Homo sapiens, UniProt O00541)
# O00541_C272, sequence (O00541 whole entry, looked up): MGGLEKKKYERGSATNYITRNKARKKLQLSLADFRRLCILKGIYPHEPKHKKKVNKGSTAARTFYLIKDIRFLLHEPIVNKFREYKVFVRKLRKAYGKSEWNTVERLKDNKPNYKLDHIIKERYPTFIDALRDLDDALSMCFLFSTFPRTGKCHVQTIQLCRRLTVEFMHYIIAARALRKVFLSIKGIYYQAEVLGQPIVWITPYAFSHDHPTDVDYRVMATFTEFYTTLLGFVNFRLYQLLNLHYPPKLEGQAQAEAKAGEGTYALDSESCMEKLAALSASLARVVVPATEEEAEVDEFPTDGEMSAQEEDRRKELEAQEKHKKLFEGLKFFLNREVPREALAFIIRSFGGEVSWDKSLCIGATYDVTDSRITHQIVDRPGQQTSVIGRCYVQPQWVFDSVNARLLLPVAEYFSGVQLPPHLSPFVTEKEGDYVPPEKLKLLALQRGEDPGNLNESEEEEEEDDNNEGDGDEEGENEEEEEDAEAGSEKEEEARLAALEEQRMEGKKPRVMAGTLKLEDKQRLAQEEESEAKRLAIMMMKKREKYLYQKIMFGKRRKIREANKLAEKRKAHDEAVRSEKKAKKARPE
compound,measurement,setting,value
COc1ccc2c(c1)CCCN2C(=O)CCl [compound 2],R value (DMSO/fragment),"DDX59 C453 (Q5T1V6); in vitro, MDA-MB-231",20.0
same,R value (DMSO/fragment),"DDX59 C453 (Q5T1V6); invitro, ramos",20.0
same,R value (DMSO/fragment),IRAK1 C608 (P51617),2.5
O=C(CCl)Nc1cc(C(F)(F)F)cc(C(F)(F)F)c1 [compound 3],R value (DMSO/fragment),"POU2F2 C346 (P09086); in vitro, MDA-MB-231",1.7
same,R value (DMSO/fragment),"POU2F2 C346 (P09086); invitro, ramos",5.5
same,R value (DMSO/fragment),"DDX59 C453 (Q5T1V6); in vitro, MDA-MB-231",20.0
same,R value (DMSO/fragment),IRAK1 C608 (P51617),20.0
C=CC(=O)N(c1ccccc1)c1ccc(Br)cc1 [compound 5],"isoTOP-ABPP ratio, P09086_C346","POU2F2 C346 (P09086); invitro, ramos",4.6
same,"isoTOP-ABPP ratio, P51617_C608",IRAK1 C608 (P51617),10.1
Cn1cc(S(=O)(=O)N2CCOCC2)cc1C(=O)NC(=O)CCl [compound 11],"isoTOP-ABPP ratio, P09086_C346","POU2F2 C346 (P09086); invitro, ramos",1.7
same,"isoTOP-ABPP ratio, Q5T1V6_C453","DDX59 C453 (Q5T1V6); invitro, 231",20.0
same,"isoTOP-ABPP ratio, P51617_C608",IRAK1 C608 (P51617),1.3
same,isoTOP-ABPP ratio O14933_C98,O14933 C98,3.4
O=C(CCl)NC(=O)NC12CC3CC(CC(C3)C1)C2 [compound 12],isoTOP-ABPP ratio O14933_C98,O14933 C98,1.3
O=C(CCl)NCCc1c[nH]c2ccccc12 [compound 13],"isoTOP-ABPP ratio, P09086_C346","POU2F2 C346 (P09086); invitro, ramos",0.6
same,"isoTOP-ABPP ratio, Q5T1V6_C453","DDX59 C453 (Q5T1V6); invitro, ramos",1.4
same,isoTOP-ABPP ratio O14933_C98,O14933 C98,1.0
C=CC(=O)N(Cc1cccnc1)c1ccc(Oc2ccccc2)c(C(F)(F)F)c1 [compound 15],"isoTOP-ABPP ratio (reactivity profile), P09086_C346",POU2F2 C346 (P09086); 500 μm in-vitro ramos,0.8
same,"isoTOP-ABPP ratio (reactivity profile), O114933_C98",O114933_C98; 500 μm in-vitro ramos,1.3
O=C(CCl)N1CCC(C(O)(c2ccccc2)c2ccccc2)CC1 [compound 20],"isoTOP-ABPP ratio (reactivity profile), P09086_C346",POU2F2 C346 (P09086); 500 μm in-vitro ramos,2.3
same,"isoTOP-ABPP ratio (reactivity profile), O114933_C98",O114933_C98; 500 μm in-vitro ramos,3.9
O=C(CCl)NC12CC3CC(CC(C3)C1)C2 [compound 21],"isoTOP-ABPP ratio (reactivity profile), P09086_C346",POU2F2 C346 (P09086); 500 μm in-vitro ramos_231,0.9
same,"isoTOP-ABPP ratio (reactivity profile), O00541_C272",O00541_C272; 500 μm in-vitro ramos,5.5
O=C(CCl)N1CCOCC1 [compound 22],"isoTOP-ABPP ratio (reactivity profile), O114933_C98",O114933_C98; 500 μm in-vitro ramos,2.0
same,"isoTOP-ABPP ratio (reactivity profile), O00541_C272",O00541_C272; 500 μm in-vitro ramos_231,1.6
N#C/C(=C\c1cc(C(F)(F)F)cc(C(F)(F)F)c1)C(N)=O [compound 23],"isoTOP-ABPP ratio (reactivity profile), P09086_C346",POU2F2 C346 (P09086); 500 μm in-vitro ramos,1.1
same,"isoTOP-ABPP ratio (reactivity profile), P51617_C608",IRAK1 C608 (P51617),1.5
same,"isoTOP-ABPP ratio (reactivity profile), O114933_C98",O114933_C98; 500 μm in-vitro ramos,1.2
same,"isoTOP-ABPP ratio (reactivity profile), O114933_C98",O114933_C98; 500 μm in-vitro ramos_231,0.7
same,"isoTOP-ABPP ratio (reactivity profile), O00541_C272",O00541_C272; 500 μm in-vitro ramos,2.0
CC(Br)C(=O)Nc1cc(C(F)(F)F)cc(C(F)(F)F)c1 (stereo not drawn) [compound 24],"isoTOP-ABPP ratio (reactivity profile), P09086_C346",POU2F2 C346 (P09086); 500 μm in-vitro ramos,1.1
same,"isoTOP-ABPP ratio (reactivity profile), Q5T1V6_C453",DDX59 C453 (Q5T1V6); 500 μm in-vitro ramos,1.7
same,"isoTOP-ABPP ratio (reactivity profile), P51617_C608",IRAK1 C608 (P51617),1.3
same,"isoTOP-ABPP ratio (reactivity profile), O00541_C272",O00541_C272; 500 μm in-vitro ramos,2.6
CC(Cl)C(=O)Nc1cc(C(F)(F)F)cc(C(F)(F)F)c1 (stereo not drawn) [compound 25],"isoTOP-ABPP ratio (reactivity profile), P09086_C346",POU2F2 C346 (P09086); 500 μm in-vitro ramos_231,0.7
same,"isoTOP-ABPP ratio (reactivity profile), Q5T1V6_C453",DDX59 C453 (Q5T1V6); 500 μm in-vitro ramos_231,0.9
O=C(/C=C/c1ccccc1)Nc1cc(C(F)(F)F)cc(C(F)(F)F)c1 [compound 26],"isoTOP-ABPP ratio (reactivity profile), O114933_C98",O114933_C98; 500 μm in-vitro ramos,1.0
CC(C)CCOCCNC(=O)CCl [compound 27],"isoTOP-ABPP ratio (reactivity profile), Q5T1V6_C453",DDX59 C453 (Q5T1V6); 500 μm in-vitro ramos_231,1.0
same,"isoTOP-ABPP ratio (reactivity profile), O114933_C98",O114933_C98; 500 μm in-vitro ramos,1.0
same,"isoTOP-ABPP ratio (reactivity profile), O114933_C98",O114933_C98; 500 μm in-vitro ramos_231,1.2
same,"isoTOP-ABPP ratio (reactivity profile), O00541_C272",O00541_C272; 500 μm in-vitro ramos_231,1.1
COc1ccccc1OCCNC(=O)CCl [compound 28],"isoTOP-ABPP ratio (reactivity profile), O114933_C98",O114933_C98; 500 μm in-vitro ramos,1.2
O=C(CCl)N1CCN(CC(=O)N2CCOCC2)CC1 [compound 29],"isoTOP-ABPP ratio (reactivity profile), O00541_C272",O00541_C272; 500 μm in-vitro ramos_231,0.9
CCN(CC)c1ccc(S(N)(=O)=O)cc1NC(=O)CCl [compound 30],"isoTOP-ABPP ratio (reactivity profile), O114933_C98",O114933_C98; 500 μm in-vitro ramos,1.3
C=CC(=O)N(Cc1cccnc1)c1cc(C(F)(F)F)cc(C(F)(F)F)c1 [compound 31],"isoTOP-ABPP reactivity ratio, P09086_C346","POU2F2 C346 (P09086); 500 μm, in-vitro_ramos",0.6
CC(C)(C)c1cc(NC(=O)CCl)on1 [compound 32],"isoTOP-ABPP reactivity ratio, P51617_C608",IRAK1 C608 (P51617); in-vitro_ramos,2.9
same,"isoTOP-ABPP reactivity ratio, P51617_C608",IRAK1 C608 (P51617); in-vitro_ramos_231,5.8
C=CC(=O)Nc1cc(F)c(N2CCN(C(=O)OC(C)(C)C)CC2)c(F)c1 [compound 38],"isoTOP-ABPP reactivity ratio, P51617_C608",IRAK1 C608 (P51617); in-vitro_ramos,2.4
Cc1ccc(C=C(C#N)C(=O)NCCN2CCOCC2)cc1 [compound 41],"isoTOP-ABPP reactivity ratio, P51617_C608",IRAK1 C608 (P51617); in-vitro_ramos_231,1.1
N#CC(=Cc1ccc(-c2ccccc2Cl)o1)C(N)=O [compound 42],"isoTOP-ABPP reactivity profile ratio, Q5T1V6_C453",DDX59 C453 (Q5T1V6); in-vitro_ramos,1.0
COc1cc(NC(=O)CCl)cc(OC)c1 [compound 43],"isoTOP-ABPP reactivity profile ratio, Q5T1V6_C453",DDX59 C453 (Q5T1V6); in-vitro_ramos_231,20.0
O=C(CCl)Nc1cccc2ncccc12 [compound 51],"isoTOP-ABPP reactivity profile ratio, Q5T1V6_C453",DDX59 C453 (Q5T1V6); in-vitro_ramos,1.8
same,"isoTOP-ABPP reactivity profile ratio, P51617_C608",IRAK1 C608 (P51617); in-vitro_ramos,1.1
O=C(CCl)Nc1ccc(-c2ccccc2)cc1 [compound 52],"isoTOP-ABPP reactivity profile ratio, P51617_C608",IRAK1 C608 (P51617); in-vitro_ramos,17.6
